# Reference: patent US9828375B2, “4-position substituted pyrazolopyrimidine derivative, and use thereof in drug preparation” (Guangxi Wuzhou Pharmaceuticals (Group) Co., Ltd., priority 2012, dated 2017)
# Key:
# [1] = system: human leukemia cell line MV4-11; assay: In vitro tumor cell proliferation inhibition (MTT): MV4-11; assay type: cell-based
# Text: (§1) The purpose of the experiment was to test the inhibition activity of the compounds of the invention for in vitro human tumor cell proliferation by the methyl thiazolyl tetrazolium (MTT) colorimetry.
# (§2) Main reagents: RPMI-1640, fetal bovine serum, pancreatin, etc. were purchased from Gibco BRL Company (Invitrogen Corporation, USA) and IMDM medium that was purchased from American Type Culture Collection (ATCC). Methyl thiazolyl tetrazolium (MTT) and dimethyl sulfoxide (DMSO) were products from Sigma Company (USA). Pyrazolopyrimidine derivatives were composed by the inventor. During in vitro experiment, 100% DMSO was prepared into 10 mM storage solution, the solution was stored in a refrigerator at −20° C. for future use, and was diluted to the required concentration with complete culture solution before use.
# (§3) Cell line and culture: Human leukemia cell line MV4-11, Jurkat, K562, human thyrophyma cell line TT, human gastric carcinoma cell line MKN-45, human malignant melanoma cell lines A375 and A875, human pancreatic carcinoma cell line panc-1, human cervical carcinoma cell line HELA, human colorectal carcinoma cell line HCT116, etc. were purchased from American type culture collection and were preserved by this laboratory. All leukemia cell lines (except MV4-11), gastric carcinoma cell lines and thyrophyma cell lines were cultured in RPMI-1640 complete medium containing 10% fetal bovine serum, 100 U/mL penicillin and 100 μg/mL streptomycin at 37° C. in 5% CO2. The remaining cell lines were cultured in DMEM complete medium containing 10% fetal bovine serum (containing 20% MV4-11 cell), 100 U/mL penicillin and 100 µg/mL streptomycin at 37° C. in 5% CO2.
# (§4) Cell suspension with cell concentration of 1-2×10^4/mL was adjusted with the complete cell medium and inoculated in a 96-well plate, with each well filled with 200 μl cell suspension that was cultured overnight. On the next day, supernatant was sucked and abandoned (supernatant was sucked upon centrifugation of suspension cells), and then cells were processed with test compounds at gradient concentrations respectively. Meanwhile, a negative control group free from drug and a solvent control group with equal volume were set, and the DMSO concentration was 0.1%. Each dose group was provided with three wells and cultured at 37° C. in 5% CO2. After 72 hours, 20 μl 5 mg/mL MTT reagent was added to each well, and cultured for another 2 to 4 hours, the supernatant was abandoned; 150 μL DMSO was added to each well again, vibrated and mixed evenly for 15 minutes; the absorbance (A) values (proportional to living cell amount) were determined with a microplate reader (λ=570 nm) and averaged. […] Experiment was repeated for 3 times at least. Experimental data were expressed with means, data statistics were tested by t, and P<0.05 means that difference has a statistical significance. The cell proliferation inhibition effects of all compounds as follows are expressed by IC50 or inhibition rate.
# c-KIT = c-KIT (Homo sapiens, UniProt P10721); assay: Kinase inhibition activity test, isotope labeling: c-KIT; assay type: biochemical; conditions: for Activity inhibition rate c-Kit (h) / inhibition at 10 µM: test compound at a concentration of 10 μM; for inhibition at 10 µM: read-out: Activity inhibition rate c-Kit (h); for IC50: ATP 200 μM, read-out: c-KIT IC50 value (inhibitory activity value)
# Method: The purpose of this experiment was to test the inhibitory activity of the compound of the invention for in vitro kinase with the isotope labeling method (the γ phosphate group on ATP was labeled). In this experiment, the in vitro activity inhibition of such kinases as FLT3, VEGFR2, FLT1, FLT4, RET, c-RAF, B-RAF, c-KIT, PDGFα, PDGFβ, FGFR2, FGFR1, EphA2, EphB2, SRC, ABL, ALK and Met was tested respectively. Staurosporine was reference molecule (or referred to as positive control). The kinase inhibition activity of the test compound was expressed by half-inhibitory concentration (IC50) or the kinase activity inhibition rate of the test compound at a concentration of 10 μM. The IC50 value could be obtained by calculating the kinase activity inhibition rate of the test compound at different concentrations.
# 20 mM 3-(N-morpholinyl)propanesulfonic acid (MOPS); 1 mM ethylenediaminetetraacetic acid (EDTA), 0.01% Brij 35 (Brij-35), 5% glycerol, 0.1% mercaptoethanol, 1 mg/mL bovine serum albumin (BSA), 10 mM manganous dichloride solution (MnCl2), 0.1 mg/mL glutamic acid/tyrosine (4:1) polypeptide (poly(Glu, Tyr)4:1), 50 μM EAIYAAPFAKKK (substrate of FLT3), 0.33 mg/mL myelin basic protein (substrate of VEGFR2), 250 μM KKKSPGEYVNIEFG (substrate of FLT1(h)), 500 μM GGEEEEYFELVKKKK (substrate of FLT4(h)), 250 μM KKKSPGEYVNIEFG (substrate of RET), 0.66 mg/mL myelin basic protein (substrate of C-RAF), 250 μM GGMEDIYFEFMGGKKK (substrate of c-Kit), 250 μM GGMEDIYFEFMGGKKK (substrate of PDGFα), 250 μM KKKSPGEYVNIEFG (substrate of FGFR1), […] GGEEEEYFELVKKKK (substrate of SRC), 50 μM EAIYAAPFAKKK (substrate of ABL), 250 μM KKKSPGEYVNIEFG (substrate of ALK), 250 μM KKKSPGEYVNIEFG (substrate of Met(h)), 10 mM magnesium acetate and γ-^33 P-ATP solution, stop buffer (3% phosphate buffer), washing buffer (75 mM phosphate solution), methanol, Filtermat A membrane, FLT3, VEGFR2, FLT3, VEGFR2, FLT1, FLT4, RET, c-RAF, B-RAF, c-KIT, PDGFRα, PDGFRβ, FGFR2, FGFR1, EphA2, EphB2, SRC, ABL, ALK, Met and other kinases, and the test compounds.
# Buffers (8 mM MOPS with pH value of 7.0, 0.2 mM EDTA and 10 mM MnCl2), (5-10 mU) kinases to be tested (FLT3, VEGFR2, FLT1, FLT4, RET, c-RAF, B-RAF, c-KIT, PDGFRα, PDGFRβ, FGFR2, FGFR1, EphA2, EphB2, SRC, ABL, ALK and Met), substrates of kinases to be tested (refer to experimental materials), 10 mM magnesium acetate and γ-^33 P-ATP solution, and test compounds at different concentrations were added to a reaction tube orderly. […] Reaction was terminated with 5 μL 3% phosphate buffer finally, and 10 μL reaction solution was titrated to the Filtermat A membrane; solution was washed for 3 times with 75 mM phosphate solution with each time lasting 5 minutes, and then washed once with methanol. Finally, the Filtermat A membrane was dried, and scintillation counting was performed on the membrane, with scintillation count reflecting the phosphorylation degree of the substrates, so that the activity inhibition of kinase could be characterized.
# [2] = system: human malignant melanoma cell line A875; assay: In vitro tumor cell proliferation inhibition (MTT): A875; assay type: cell-based
# Text: as §1, §2, §3, §4
# [3] = system: human gastric carcinoma cell line MKN-45; assay: In vitro tumor cell proliferation inhibition (MTT): MKN-45; assay type: cell-based
# Text: as §1, §2, §3, §4
# [4] = system: human cervical carcinoma cell line HELA; assay: In vitro tumor cell proliferation inhibition (MTT): HELA; assay type: cell-based; conditions: 72 hours
# Text: as §1, §2, §3, §4
# [5] = system: human leukemia cell line K562; assay: In vitro tumor cell proliferation inhibition (MTT): K562; assay type: cell-based
# Text: as §1, §2, §3, §4
# [6] = system: human leukemia cell line Jurkat; assay: In vitro tumor cell proliferation inhibition (MTT): Jurkat; assay type: cell-based; conditions: 72 hours
# Text: as §1, §2, §3, §4
# Sequence of c-KIT (P10721 26-976): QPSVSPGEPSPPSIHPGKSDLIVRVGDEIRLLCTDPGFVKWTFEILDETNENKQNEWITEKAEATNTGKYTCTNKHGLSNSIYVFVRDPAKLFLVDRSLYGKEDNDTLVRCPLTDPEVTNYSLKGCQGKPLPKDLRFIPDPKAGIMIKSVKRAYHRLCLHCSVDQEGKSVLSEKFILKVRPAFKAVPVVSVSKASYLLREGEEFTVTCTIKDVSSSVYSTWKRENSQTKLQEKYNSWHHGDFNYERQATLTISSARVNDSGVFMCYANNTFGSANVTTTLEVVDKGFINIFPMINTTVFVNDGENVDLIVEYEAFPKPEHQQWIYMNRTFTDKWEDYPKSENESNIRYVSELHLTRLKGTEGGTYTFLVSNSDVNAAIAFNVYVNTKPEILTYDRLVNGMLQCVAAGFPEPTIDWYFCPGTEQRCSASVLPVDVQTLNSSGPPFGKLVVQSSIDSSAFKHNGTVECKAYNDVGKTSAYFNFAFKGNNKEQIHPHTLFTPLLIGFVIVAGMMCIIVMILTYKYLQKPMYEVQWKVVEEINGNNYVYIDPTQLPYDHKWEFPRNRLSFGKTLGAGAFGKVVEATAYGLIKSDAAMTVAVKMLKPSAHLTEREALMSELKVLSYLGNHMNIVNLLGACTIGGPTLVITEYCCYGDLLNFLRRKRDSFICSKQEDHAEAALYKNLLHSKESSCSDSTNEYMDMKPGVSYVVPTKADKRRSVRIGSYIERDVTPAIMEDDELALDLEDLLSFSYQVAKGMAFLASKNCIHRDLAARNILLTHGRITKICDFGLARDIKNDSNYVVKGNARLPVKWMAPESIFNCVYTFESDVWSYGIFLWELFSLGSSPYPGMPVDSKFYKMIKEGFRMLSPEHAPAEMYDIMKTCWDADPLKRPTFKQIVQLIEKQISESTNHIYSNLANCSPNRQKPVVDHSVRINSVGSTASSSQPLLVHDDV
IC50 ([1]; 72 hours) [µM],Activity inhibition rate c-Kit (h) (c-KIT) [%],IC50 ([2]; 72 hours) [µM],IC50 ([3]; 72 hours) [µM],IC50 [4] [µM],IC50 ([5]; 72 hours) [µM],IC50 [6] [µM],"IC50 ([1]; Homo sapiens, MV4-11, 72 h) [µM]",inhibition at 10 µM (c-KIT) [%],"IC50 ([2]; Homo sapiens, A875, 72 hours) [µM]","IC50 ([3]; Homo sapiens, MKN-45, 72 hours) [µM]","IC50 ([5]; Homo sapiens, K562, 72 hours) [µM]","IC50 ([6]; Homo sapiens, Jurkat) [µM]",Compound,"IC50 ([4]; Homo sapiens, HeLa) [µM]",IC50 (c-KIT) [µM]
0.053,95,6.97,7.65,8.49,< 50,< 50,–,–,–,–,–,–,1-(4-((1H-pyrazolopyrimidine-4-yl)oxy)-3-fluorophenyl)-3-(3-trifluoromethoxy)phenyl)urea [4a-8],–,–
0.363,98,< 50,< 50,< 50,< 50,< 50,–,–,–,–,–,–,1-(4-((1H-pyrazolopyrimidine-4-yl)oxy)phenyl)-3-(methylcyclohexyl)urea [4a-20],–,–
–,–,–,–,–,–,–,0.005,100,3 to 10,< 50,< 50,< 50,O=C(Nc1ccc(Oc2ncnc3[nH]ncc23)cc1)Nc1ccc(C(F)(F)F)cc1 [4a-1],< 50,–
0.003,100,4.12,8.23,< 50,< 50,8.72,–,–,–,–,–,–,O=C(Nc1ccc(Oc2ncnc3[nH]ncc23)cc1)Nc1ccc(Cl)c(C(F)(F)F)c1 [4a-2],–,0.507
0.124,93,< 50,< 50,< 50,< 50,–,–,–,–,–,–,–,"C[C@@H](NC(=O)Nc1ccc(Oc2ncnc3[nH]ncc23)cc1)c1ccccc1 [4a-19, (R)-1-(4-((1H-pyrazolopyrimidine-4-yl)oxy)phenyl)-3-(1-phenethyl)urea]",–,–
0.0004,>90,4.27,2.84,5.51,< 50,–,–,–,–,–,–,–,CC(C)(C)c1cc(NC(=O)Nc2ccc(Oc3ncnc4[nH]ncc34)cc2)n(-c2ccccc2)n1 [4a-24],–,–
–,–,–,–,–,–,–,0.05,> 30,–,7.64,–,–,"O=C(Nc1ccc(NC(=O)N2C=NC=C3NNC=C32)cc1)Nc1ccc(Cl)c(C(F)(F)F)c1 [4b-5, 1-(4-(1H-pyrazolopyrimidine-4-amido)phenyl)-3-(4-chloro-3-(trifluoromethyl)phenyl)urea]",–,–
–,–,–,–,–,–,–,0.729,> 30,< 50,< 50,< 50,< 50,"COc1ccc(NC(=O)Nc2ccc(NC(=O)N3C=NC=C4NNC=C43)cc2)cc1 [4b-6, 1-(4-(1H-pyrazolopyrimidine-4-amido)phenyl)-3-(4-methoxyphenyl)urea]",–,–
–,–,–,–,–,–,–,0.667,> 30,< 50,< 50,< 50,< 50,"Cc1cc(C)c(NC(=O)Nc2ccc(NC(=O)N3C=NC=C4NNC=C43)cc2)c(C)c1 [4b-7, 1-(4-(1H-pyrazolopyrimidine-4-amido)phenyl)-3-(2,4,6-trimethylphenyl)urea]",–,–
–,–,–,–,–,–,–,0.012,> 90,< 50,–,–,< 50,O=C(Nc1ccc(Sc2ncnc3[nH]ncc23)cc1)Nc1ccc(C(F)(F)F)cc1 [4c-1],–,–
0.039,>90,< 50,8.71,–,–,< 50,–,–,–,–,–,–,O=C(Nc1ccc(Sc2ncnc3[nH]ncc23)cc1)Nc1cccc(C(F)(F)F)c1 [4c-2],–,–
–,–,–,–,–,–,–,< 1,> 30,< 50,< 50,< 50,< 50,"CC(C)n1ncc2c(Oc3ccc(NC(=O)Nc4cc(C(C)(C)C)on4)cc3)ncnc21 [5a-4, 1-(5-tert-butylisoxazol-3-yl)-3-(4-(1-isopropyl-(1H-pyrazolopyrimidine-4-yl)oxy)phenyl)urea]",–,–

Compound,IC50 ([1]; 72 hours) [µM],Activity inhibition rate c-Kit (h) (c-KIT) [%],IC50 ([2]; 72 hours) [µM],IC50 ([3]; 72 hours) [µM],IC50 [4] [µM],IC50 ([5]; 72 hours) [µM],IC50 [6] [µM],"IC50 ([1]; Homo sapiens, MV4-11, 72 h) [µM]",inhibition at 10 µM (c-KIT) [%],"IC50 ([2]; Homo sapiens, A875, 72 hours) [µM]","IC50 ([3]; Homo sapiens, MKN-45, 72 hours) [µM]","IC50 ([5]; Homo sapiens, K562, 72 hours) [µM]","IC50 ([6]; Homo sapiens, Jurkat) [µM]","IC50 ([4]; Homo sapiens, HeLa) [µM]",IC50 (c-KIT) [µM]
O=C(Nc1ccc(Oc2ncnc3[nH]ncc23)cc1)Nc1cccc(C(F)(F)F)c1 [4a-6],–,–,–,–,–,–,–,0.004,100,6.24,9.71,< 50,4.28,< 50,0.313
